Here are results for 1 compound from patent US9930892B2, “Molecules having pesticidal utility, and intermediates, compositions, and processes, related thereto” (Dow AgroSciences LLC, priority 2016, dated 2018).

Molecules are shown by their SMILES.

Holding throughout (format): in vivo
The subject of series [1] is Beet Armyworm (Spodoptera exigua). The series can be described thus: Bioassay on Beet Armyworm (BAW), 128-well diet tray assay. Conditions: 50 μg/cm^2 on artificial diet, second instar larvae, five to seven days, 25° C. On the procedure: Bioassays on BAW were conducted using a 128-well diet tray assay. One to five second instar BAW larvae were placed in each well (3 mL) of the diet tray that had been previously filled with 1 mL of artificial diet to which 50 μg/cm^2 of the test molecule (dissolved in 50 μL of 90:10 acetone-water mixture) had been applied (to each of eight wells) and then allowed to dry. Trays were covered with a clear self-adhesive cover and held at 25° C., 14:10 light-dark for five to seven days. Percent mortality was recorded for the larvae in each well; activity in the eight wells was then averaged. The results are indicated in the table entitled “Table ABC: Biological Results” (See Table Section).
(§1) Bioassays on BAW and CL were conducted according to the procedures outlined in Example A: Bioassays on Beet Armyworm (“BAW”) and Cabbage Looper (“CL”) using the indicated concentrations.

Series [2] concerns Cabbage Looper (Trichoplusia ni). The series can be described thus: Bioassay on Cabbage Looper (CL), 128-well diet tray assay. The conditions noted are these: 50 μg/cm^2 on artificial diet, second instar larvae, five to seven days, 25° C. How it is done:
Bioassays on CL were conducted using a 128-well diet tray assay. One to five second instar CL larvae were placed in each well (3 mL) of the diet tray that had been previously filled with 1 mL of artificial diet to which 50 μg/cm^2 of the test molecule (dissolved in 50 μL of 90:10 acetone-water mixture) had been applied (to each of eight wells) and then allowed to dry. Trays were covered with a clear self-adhesive cover and held at 25° C., 14:10 light-dark for five to seven days. Percent mortality was recorded for the larvae in each well; activity in the eight wells was then averaged. The results are indicated in the table entitled “Table ABC: Biological Results” (See Table Section).
as §1

The test system of series [3] is Green Peach Aphid (Myzus persicae). Nature of the series: Bioassay on Green Peach Aphid (GPA), foliar spray on cabbage seedlings. Conditions: 200 ppm spray on cabbage seedlings, graded after three days, Abbott corrected % control. How it is done:
Cabbage seedlings grown in 3-inch pots, with 2-3 small (3-5 cm) true leaves, were used as test substrate. The seedlings were infested with 20-50 GPA (wingless adult and nymph stages) one day prior to chemical application. Four pots with individual seedlings were used for each treatment. Test molecules (2 mg) were dissolved in 2 mL of acetone/methanol (1:1) solvent, forming stock solutions of 1000 ppm test molecule. The stock solutions were diluted 5× with 0.025% Tween 20 in water to obtain the solution at 200 ppm test molecule. A hand-held aspirator-type sprayer was used for spraying a solution to both sides of […] leaves until runoff. Reference plants (solvent check) were sprayed with the diluent only containing 20% by volume of acetone/methanol (1:1) solvent. Treated plants were held in a holding room for three days at approximately 25° C. and ambient relative humidity (RH) prior to grading. Evaluation was conducted by counting the number of live aphids per plant under a microscope. Percent Control was measured by using Abbott's correction formula (W. S. Abbott, “A Method of Computing the Effectiveness of an Insecticide” J. Econ. Entomol. 18 (1925), pp. 265-267) as follows. Corrected % Control=100*(X−Y)/X • where • X=No. of live aphids on solvent check plants and • Y=No. of live aphids on treated plants

The test system of series [4] is Yellow Fever Mosquito (Aedes aegypti). Conditions: 4000 ppm master plate solution diluted, about 1 day-old larvae, scored on mortality after 3 days. On the procedure:
Master plates containing 400 μg of a molecule dissolved in 100 μL of dimethyl sulfoxide (DMSO) (equivalent to a 4000 ppm solution) are used. A master plate of assembled molecules contains 15 μL per well. To this plate, 135 μL of a 90:10 water:acetone mixture is added to each well. A robot (Biomek® NXP Laboratory Automation Workstation) is programmed to dispense 15 μL aspirations from the master plate into an empty 96-well shallow plate (“daughter” plate). There are 6 reps (“daughter” plates) created per master. The created daughter plates are then immediately infested with YFM larvae.
The day before plates are to be treated, mosquito eggs are placed in Millipore water containing liver powder to begin hatching (4 g. into 400 mL). After the daughter plates are created using the robot, they are infested with 220 μL of the liver powder/larval mosquito mixture (about 1 day-old larvae). After plates are infested with mosquito larvae, a non-evaporative lid is used to cover the plate to reduce drying. Plates are held at room temperature for 3 days prior to grading. After 3 days, each well is observed and scored based on mortality. The results are indicated in the table entitled “Table ABC: Biological Results” (See Table Section).

In the case of `CN(NC(=O)c1ccc(/C(F)=C/C(c2ccc(Cl)c(Br)c2)C(F)(F)F)cc1C(F)(F)F)C(=O)NCC(F)(F)F` (stereo not shown) [PF8], the “BAW % Control (or Mortality) rating” value in series [1] is reported as “A (50-100)”. For the same compound, the “CL % Control (or Mortality) rating” value in series [2] is listed as “A (50-100)”. The “GPA % Control (or Mortality) rating” value in series [3] is recorded as “B (More than 0-Less than 80)”. Also, the “YFM % Control (or Mortality) rating” value in series [4] is “A (80-100)”.
